In patent US20170065593A1, “Combination” (Novartis AG, priority 2009, published 2017):

Test system: 95 cancer cell lines
Experimental: (Compound A) or mTOR inhibitor (mTORi, Rapamycin) alone or a combination of both agents at a ratio of 1:2 (MEKi:mTORi) and cell proliferation/death was measured after 3 day drug exposure. Briefly, cells were plated in 384-well plates at 500 cells/well in culture media appropriate for each cell type, supplemented with 10% FBS and 1% penicillin/streptomycin, and incubated overnight at 37° C., 5% CO2. […] (two fold dilutions ranging from 7.3 uM-0.014 nM) or with mTOR inhibitor (two fold dilutions ranging from 14.6 uM-0.112 nM) or in combination with both compounds and incubated for 72 hours. Cell growth was measured using the CellTiterGlo (CTG) reagent (Promega) according to the manufacturer's protocol. Data were analyzed using the XLfit (IDBS Ltd.) curve-fitting tool for Microsoft Excel. Growth IC50 (gIC50) and Ymin values were generated using a four-parameter curve fit algorithm (XLFit algorithm #205).
Results were expressed as a percent of the t=0 and plotted against the compound concentration. The T=0 value is normalized to 100% and represents the number of cells at the time of compound addition. […] Formula below was used to calculate mutually exclusive combination index (CI). Data were reported as log CI, where the logarithm value of CI was calculated.
CI=IC50 of a+b/IC50 of a+IC50 of b+a/IC50 of b
Synergy is defined as CI<1, additivity as CI=1 and antagonism as CI>1. Considering the variability of these proliferation assays we arbitrarily defined log CI>0.1 as antagonism, between −0.1 and 0.1 as no significant effect and <−0.1 as synergy.

## N-{3-[3-cyclopropyl-5-(2-fluoro-4-iodo-phenylamino)6,8-dimethyl;-2,4,7-trioxo-3,4,6,7-tetrahydro-2H-pyrido[4,3-d]pyrimidin-1-yl]phenyl}acetamide [Compound A]
  percentage of cell undergoing death (cytotoxic): 20%
Independent of the KRAS status
  cell lines undergoing death: > 20%
